pIC50: −log10 of the molar value. Activity calls are given as the source filed them. The calls are words filed in the database; no cut-off is given here.
Experiments:
[1] = tested on: DNA; assay: Binding affinity to calf thymus DNA at 50 uM by Circular dichroism spectra analysis; format: nucleic-acid assay; conditions: Bos taurus
[2] = tested on: SK-BR-3; assay: Induction of apoptosis in human SKBR3 cells at 10 uM after 24 hrs using propidium iodide/Annexin-V staining by flow cytometry relative to control; format: functional
[3] = tested on: HeLa; assay: Cell cycle arrest in human HeLa cells assessed as accumulation in G2/M phase at 10 uM after 48 hrs using propidium iodide staining by flow cytometry relative to control; format: functional
[4] = tested on: HeLa; assay: Cell cycle arrest in human HeLa cells assessed as accumulation in S phase at 10 uM after 48 hrs using propidium iodide staining by flow cytometry relative to control; format: functional
[5] = tested on: HeLa; assay: Cell cycle arrest in human HeLa cells assessed as accumulation in G1 phase at 10 uM after 48 hrs using propidium iodide staining by flow cytometry relative to control; format: functional
[6] = tested on: HeLa; assay: Cell cycle arrest in human HeLa cells assessed as accumulation in sub-G1 phase at 10 uM after 48 hrs using propidium iodide staining by flow cytometry relative to control; format: functional
[7] = tested on: HeLa; assay: Cell cycle arrest in human HeLa cells assessed as accumulation in G2/M phase at 5 uM after 48 hrs using propidium iodide staining by flow cytometry relative to control; format: functional
[8] = tested on: HeLa; assay: Cell cycle arrest in human HeLa cells assessed as accumulation in sub-G1 phase at 5 uM after 48 hrs using propidium iodide staining by flow cytometry relative to control; format: functional
[9] = tested on: HeLa; assay: Cell cycle arrest in human HeLa cells assessed as accumulation in G2/M phase at 10 uM after 24 hrs using propidium iodide staining by flow cytometry relative to control; format: functional
[10] = tested on: HeLa; assay: Cell cycle arrest in human HeLa cells assessed as accumulation in sub-G1 phase at 10 uM after 24 hrs using propidium iodide staining by flow cytometry relative to control; format: functional
[11] = tested on: HeLa; assay: Cell cycle arrest in human HeLa cells assessed as accumulation in S phase at 5 uM after 24 hrs using propidium iodide staining by flow cytometry relative to control; format: functional
[12] = tested on: HeLa; assay: Cell cycle arrest in human HeLa cells assessed as accumulation in G1 phase at 5 uM after 24 hrs using propidium iodide staining by flow cytometry relative to control; format: functional
[13] = tested on: MIA PaCa-2; assay: Cell cycle arrest in human MIAPaCa2 cells assessed as accumulation in S phase at 10 uM after 48 hrs using propidium iodide staining by flow cytometry relative to control; format: functional
[14] = tested on: MIA PaCa-2; assay: Cell cycle arrest in human MIAPaCa2 cells assessed as accumulation in sub-G1 phase at 10 uM after 48 hrs using propidium iodide staining by flow cytometry relative to control; format: functional
[15] = tested on: MIA PaCa-2; assay: Cell cycle arrest in human MIAPaCa2 cells assessed as accumulation in G2/M phase at 5 uM after 48 hrs using propidium iodide staining by flow cytometry relative to control; format: functional
[16] = tested on: MIA PaCa-2; assay: Cell cycle arrest in human MIAPaCa2 cells assessed as accumulation in S phase at 5 uM after 48 hrs using propidium iodide staining by flow cytometry relative to control; format: functional
[17] = tested on: MIA PaCa-2; assay: Cell cycle arrest in human MIAPaCa2 cells assessed as accumulation in sub-G1 phase at 5 uM after 48 hrs using propidium iodide staining by flow cytometry relative to control; format: functional
[18] = tested on: MIA PaCa-2; assay: Cell cycle arrest in human MIAPaCa2 cells assessed as accumulation in G2/M phase at 10 uM after 24 hrs using propidium iodide staining by flow cytometry relative to control; format: functional
[19] = tested on: MIA PaCa-2; assay: Cell cycle arrest in human MIAPaCa2 cells assessed as accumulation in S phase at 10 uM after 24 hrs using propidium iodide staining by flow cytometry relative to control; format: functional
[20] = tested on: MIA PaCa-2; assay: Cell cycle arrest in human MIAPaCa2 cells assessed as accumulation in G1 phase at 10 uM after 24 hrs using propidium iodide staining by flow cytometry relative to control; format: functional
[21] = tested on: MIA PaCa-2; assay: Cell cycle arrest in human MIAPaCa2 cells assessed as accumulation in sub-G1 phase at 10 uM after 24 hrs using propidium iodide staining by flow cytometry relative to control; format: functional
[22] = tested on: MIA PaCa-2; assay: Cell cycle arrest in human MIAPaCa2 cells assessed as accumulation in G2/M phase at 5 uM after 24 hrs using propidium iodide staining by flow cytometry relative to control; format: functional
[23] = tested on: MIA PaCa-2; assay: Cell cycle arrest in human MIAPaCa2 cells assessed as accumulation in S phase at 5 uM after 24 hrs using propidium iodide staining by flow cytometry relative to control; format: functional
[24] = tested on: MIA PaCa-2; assay: Cell cycle arrest in human MIAPaCa2 cells assessed as accumulation in G1 phase at 5 uM after 24 hrs using propidium iodide staining by flow cytometry relative to control; format: functional
[25] = tested on: SK-BR-3; assay: Cell cycle arrest in human SKBR3 cells assessed as accumulation in G2/M phase at 10 uM after 48 hrs using propidium iodide staining by flow cytometry relative to control; format: functional
[26] = tested on: SK-BR-3; assay: Cell cycle arrest in human SKBR3 cells assessed as accumulation in S phase at 10 uM after 48 hrs using propidium iodide staining by flow cytometry relative to control; format: functional
[27] = tested on: SK-BR-3; assay: Cell cycle arrest in human SKBR3 cells assessed as accumulation in G1 phase at 10 uM after 48 hrs using propidium iodide staining by flow cytometry relative to control; format: functional
[28] = tested on: SK-BR-3; assay: Cell cycle arrest in human SKBR3 cells assessed as accumulation in G1 phase at 5 uM after 48 hrs using propidium iodide staining by flow cytometry relative to control; format: functional
[29] = tested on: SK-BR-3; assay: Cell cycle arrest in human SKBR3 cells assessed as accumulation in G1 phase at 10 uM after 24 hrs using propidium iodide staining by flow cytometry relative to control; format: functional
[30] = tested on: SK-BR-3; assay: Cell cycle arrest in human SKBR3 cells assessed as accumulation in sub-G1 phase at 10 uM after 24 hrs using propidium iodide staining by flow cytometry relative to control; format: functional
[31] = tested on: SK-BR-3; assay: Cell cycle arrest in human SKBR3 cells assessed as accumulation in G2/M phase at 5 uM after 24 hrs using propidium iodide staining by flow cytometry relative to control; format: functional
[32] = tested on: SK-BR-3; assay: Cell cycle arrest in human SKBR3 cells assessed as accumulation in S phase at 5 uM after 24 hrs using propidium iodide staining by flow cytometry relative to control; format: functional
[33] = tested on: SK-BR-3; assay: Cell cycle arrest in human SKBR3 cells assessed as accumulation in G1 phase at 5 uM after 24 hrs using propidium iodide staining by flow cytometry relative to control; format: functional
[34] = tested on: SK-BR-3; assay: Cell cycle arrest in human SKBR3 cells assessed as accumulation in sub-G1 phase at 5 uM after 24 hrs using propidium iodide staining by flow cytometry relative to control; format: functional
[35] = tested on: HeLa; assay: Antiproliferative activity against human HeLa cells after 72 hrs by MTT assay; format: functional, cell-based; conditions: for CC50: read-out: LC50 (the source's name)
[36] = (§1) Antiproliferative activity against human WI38 cells after 72 hrs by MTT assay; format: cell-based, WI-38; conditions: human, WI-38 cells; read-out: LC50
[37] = tested on: WI-38; assay: as §1; format: cell-based; conditions: Homo sapiens, WI-38, 72 h
[38] = tested on: MIA PaCa-2; assay: Antiproliferative activity against human MIAPaCa2 cells after 72 hrs by MTT assay; format: functional, cell-based; conditions: MIA PaCa-2, 72 h; for CC50: read-out: LC50 (the source's name)
[39] = tested on: SK-BR-3; assay: Antiproliferative activity against human SKBR3 cells after 72 hrs by MTT assay; format: functional, cell-based; conditions: SK-BR-3, 72 h; for CC50: read-out: LC50 (the source's name)
[40] = tested on: MCF7; assay: Antiproliferative activity against human MCF7 cells after 72 hrs by MTT assay; format: functional, cell-based; conditions: MCF7, 72 h; for CC50: read-out: LC50 (the source's name)

In the case of `Cl.Cl.c1cc(-c2nc3ccc(C4=NCCN4)cc3s2)cc(-c2nc3ccc(C4=NCCN4)cc3s2)c1`, the Activity [1] was “Active”, the Activity [2] was 8% and the Activity [3] was 13.2%. The Activity [4] was 71.4%, the Activity [5] was 20.4% and the Activity [6] was 15.5%. It also gave an Activity [7] of 17.2%, an Activity [8] of 13.3% and an Activity [9] of 2.1%. The Activity [10] was 12.5%, the Activity [11] was 38.4% and the Activity [12] was 39.3%. The Activity [13] was 50.8%, the Activity [14] was 9.1% and the Activity [15] was 17.1%. The Activity [16] was 30.8%, the Activity [17] was 20.4% and the Activity [18] was 21.3%. The Activity [19] was 49.1%, the Activity [20] was 41.6% and the Activity [21] was 8.1%. The Activity [22] was 10.9%, the Activity [23] was 33.6% and the Activity [24] was 60.2%. For the same compound, the Activity [25] was 11.1%, the Activity [26] was 67.8% and the Activity [27] was 22.1%. For the same compound, the Activity [28] was 36.2%, the Activity [29] was 28.7% and the Activity [30] was 23.1%. The Activity [31] was 4.2%, the Activity [32] was 58.9% and the Activity [33] was 34.5%. It also gave an Activity [34] of 33.3%, a pIC50 [35] of 5.69 and a CC50 [35] of 7.38 µM. For the same compound, the CC50 at 72 h [36] was 6.63 µM, the pIC50 [37] was 6.82 and the pIC50 [38] was 6.59. It also gave a CC50 [38] of 1.49 µM, a pIC50 [39] of 7.40 and a CC50 [39] of 0.87 µM. For the same compound, the pIC50 [40] was less than 4.00 and the CC50 [40] was 5.3 µM.
With `Cl.Cl.c1cc2nc(-c3ccc(-c4nc5ccc(C6=NCCN6)cc5s4)cc3)sc2cc1C1=NCCN1` the Activity [1] was “inactive”, the Activity [2] was 5% and the Activity [3] was 14.5%. It also gave an Activity [4] of 44%, an Activity [5] of 42.3% and an Activity [6] of 23.2%. For the same compound, the Activity [7] was 18.9%, the Activity [8] was 22.7% and the Activity [9] was 7.2%. It also gave an Activity [10] of 15.5%, an Activity [11] of 44.5% and an Activity [12] of 42%. It also gave an Activity [13] of 40.9%, an Activity [14] of 53.9% and an Activity [15] of 18.4%. The Activity [16] was 35.8%, the Activity [17] was 35.7% and the Activity [18] was 19%. The Activity [19] was 40.1%, the Activity [20] was 40.9% and the Activity [21] was 33.1%. For the same compound, the Activity [22] was 5.8%, the Activity [23] was 55% and the Activity [24] was 35.2%. For the same compound, the Activity [25] was 20.3%, the Activity [26] was 42.3% and the Activity [27] was 41.3%. It also gave an Activity [28] of 53.6%, an Activity [29] of 50.9% and an Activity [30] of 31.6%. For the same compound, the Activity [31] was 11.6%, the Activity [32] was 33.5% and the Activity [33] was 58.9%. For the same compound, the Activity [34] was 15.8%, the pIC50 [35] was 5.11 and the CC50 [35] was 71.1 µM. The CC50 at 72 h [36] was greater than 100 µM, the pIC50 [37] was less than 4.00 and the pIC50 [38] was 5.45. It also gave a CC50 [38] of 36.7 µM, a pIC50 [39] of 5.93 and a CC50 [39] of 8.07 µM. It also gave a pIC50 [40] of 5.51 and a CC50 [40] greater than 100 µM.

From ChEMBL document CHEMBL2380196, “New anticancer active and selective phenylene-bisbenzothiazoles: synthesis, antiproliferative evaluation and DNA binding” (Eur J Med Chem, 2013)
